PubChem BioAssay AID1259418 (Broad Institute, 2018)
Where “and” joins values, the source holds several entries; their conditions need not be identical. Equal entries are not always repeated. Records with an inconclusive call do not appear. Calls of active or inactive are those of the source.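 The calls were made as follows: active = fitted half-maximal concentration of signal decrease at or below twice the sample's top tested concentration; inconclusive = flat curve between -70 and -30 percent, or poor fit; inactive = flat within 30 percent, signal rise, or potency above limit.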 Positions of bridges follow the written chain, without caps; N, C: chain ends. Non-standard residues stand in square brackets, D forms with d. Residues, ends and D or L forms follow the SMILES beside them. ξ: configuration not given here. *: point of attachment. Heptanoyl(6-Me) = CC(C)CCCCC(=O)*; ξDab = NCCC(N)C(=O)O; ξT = CC(O)C(N)C(=O)O

These compounds were tested against T. gondii ME49Luc in IFN-y HeLa, luciferase, 72 h (assay: T. gondii growth inhibition with IFN-gamma, dose response, cell-based, ME49Luc, HeLa, luciferase, 72 h (AID 1259418)).

SMILES | AC50
CC(C)c1ccc(S(=O)(=O)N2CCC(C(=O)NCCc3csc(-c4ccccc4)n3)CC2)cc1 | 12.7 µM
C(=C\c1ccc(C2[C@@H]3CN(Cc4ccc5c(c4)OCO5)C[C@H]2N3)cc1)/c1ccccc1 (stereo not given in full) | 13.2 µM
CCN(CC)c1nc(-c2ccc(OC)cc2)nc2ccccc12 | 15.7 µM
COc1ccc(-c2nc(NCC3CCN(CCc4ccc(F)cc4)CC3)c3ccccc3n2)cc1 | 12.2 µM
O=C(Nc1ccccc1)c1ncn2c1CN(CC1CC1)S(=O)(=O)c1ccccc1-2 | 32.6 µM
Cc1ccccc1-c1ccc(C2[C@H]3CNC[C@@H]2N3Cc2ccc3c(c2)OCO3)cc1 (stereo not given in full) | > 39 µM (inactive)
O=C(c1ccc(F)cc1)N1CC(=O)N2[C@H](C1)[C@H](c1ccc(C#CCC3CCCC3)cc1)[C@@H]2CO | 10.6 µM
Fc1ccc(CSc2nc(NCc3ccccc3)c3ccccc3n2)cc1 | 17.8 µM
CC(C)Cc1ccc(S(=O)(=O)N2CCC3(CC2)NCCN=C3NCc2ccc(F)cc2)cc1 | 6.29 µM
CC(C)CCCCC(=O)NC(CCN)C(=O)NC(C(=O)NC(CCN)C(=O)NC1CCNC(=O)C(C(C)O)NC(=O)C(CCN)NC(=O)C(CCN)NC(=O)[C@H](CC(C)C)NC(=O)[C@@H](CC(C)C)NC(=O)C(CCN)NC1=O)C(C)O (stereo partly drawn) ({Heptanoyl(6-Me)}-[ξDab][ξT][ξDab][ξDab][ξDab][dL]L[ξDab][ξDab][ξT]; lactam 4-C) | 18.3 µM
COc1ccc(-c2nc(CN(c3ccccc3OC)S(=O)(=O)c3cccs3)c(C)o2)cc1 | 13.7 µM
Cc1cccc(C(=O)Nc2c(C(=O)N3CCN(c4ccccn4)CC3)[nH]c3ccccc23)c1 | > 39 µM (inactive)
O=C(C[C@H]1CC[C@H]2[C@@H](COC[C@H](O)CN2Cc2ccc(Oc3ccccc3)cc2)O1)N1CCN(c2ccccc2)CC1 | 12.1 µM and 21.2 µM
COc1cccc(N(Cc2nc(-c3ccccc3)oc2C)S(=O)(=O)c2ccccc2C)c1 | 5.46 µM
Cc1nc(CCNC(=O)C2CCN(S(=O)(=O)c3ccc(C(C)(C)C)cc3)CC2)cs1 | 31.4 µM
O=C(CC1CC1)N1CC[C@@H]2[C@H]1c1cc(-c3ccc(F)cc3)ccc1N[C@@H]2CO | 19.7 µM
O=C(c1ccccc1Cl)N1CCC2(CC1)Nc1cc(F)ccc1-n1cccc12 | > 39 µM (inactive)
O=C1CCc2cc(S(=O)(=O)N3CCc4ccccc43)cc3c2N1CCC3 | > 39 µM (inactive)
O=C(CC1N=C2c3ccccc3N=C(SCc3ccc(F)cc3)N2C1=O)NCCc1ccccc1 (stereo not given) | 4.59 µM
Cc1ccccc1S(=O)(=O)N1CCCCN2[C@H](C1)[C@@H](c1ccc(C#CCN(C)C)cc1)[C@@H]2CO | 20.9 µM
COc1cc2nc(N3CCN(C(=O)c4ccco4)CC3)nc(N)c2cc1OC | 18.4 µM
Cc1cc(C2CCCN2Cc2cn(C(C)C)c3ccccc23)no1 (stereo not given) | 35.1 µM
O=C(CCCCCCNC(=O)c1cnc(N(c2ccccc2)c2ccccc2)nc1)NO | 14.8 µM

SMILES | AC50
COc1ccccc1CNC(=O)CC1N=C2c3ccccc3N=C(SCc3ccccc3Cl)N2C1=O (stereo not given) | 20.4 µM
CCc1ccc(NS(=O)(=O)c2cc3c4c(c2)CCC(=O)N4CCC3)cc1 | 37.7 µM
O=C(Cc1ccccc1)N1CC(=O)N2[C@H](CO)[C@@H](c3ccc(-c4ccc(F)cc4)cc3)[C@H]2C1 | 22.2 µM
O=C(c1cccc(F)c1)N1CCCCN2[C@H](C1)[C@H](c1ccc(C#CC3(O)CCCC3)cc1)[C@@H]2CO | 9.01 µM
CCCCC(=O)N1CCC2(CC1)Nc1ccc(Cl)cc1-n1cccc12 | > 39 µM (inactive)
CC/C(=C(\c1ccccc1)c1ccc(OCCN(C)C)cc1)c1ccccc1 | 35.2 µM
CCc1c2c(nc3ccc(OC(=O)N4CCC(N5CCCCC5)CC4)cc13)-c1cc3c(c(=O)n1C2)COC(=O)[C@]3(O)CC | 21 µM
CN(C)CCCNC(=O)c1cc(-c2cnc(-c3ccccc3)nc2)cn1C | 30.1 µM
C/C=C/c1ccc([C@H]2[C@@H](CO)N3CCCCN(S(=O)(=O)c4ccc(OC)cc4)C[C@H]23)cc1 | 15.7 µM
Cc1cc(C)c(S(=O)(=O)N2CCC(C(=O)NCCc3csc(-c4ccccc4)n3)CC2)cc1C | 14.7 µM
O=C(Nc1cccc(F)c1)N1CCCCN2[C@H](CO)[C@@H](c3ccc(C#Cc4cccnc4)cc3)[C@H]2C1 | 19.1 µM
O=S(=O)(c1ccc2c(c1)CCCC2)N1CCC2(CC1)NCCN=C2NCc1ccc2c(c1)OCO2 | 11.1 µM
O=S(=O)(c1cccs1)N1CCC2(CC1)NCCN=C2NCc1ccc(Cl)cc1 | > 39 µM (inactive)
CCOc1ccc(N(Cc2nc(-c3ccc(C)cc3)oc2C)S(=O)(=O)c2ccccc2)cc1 | > 39 µM (inactive)
COc1ccccc1CN1CC[C@@H]2[C@H]1c1cc(-c3cccc(C(=O)N(C)C)c3)ccc1N[C@@H]2CO | 19.6 µM
N#C[C@H]1[C@H](c2ccc(-c3cccc(F)c3)cc2)[C@H](CO)N1C(=O)NC1CCCC1 | 18.9 µM
Cc1ccc(NC(=O)CN2CCC3(CC2)N=C(c2cccc(Cl)c2)C(=O)N3)cc1 | 28 µM
COc1ccc(CN2C[C@@H]3C[C@H](C(=O)Nc4ccccc4)[C@@H](C2)O3)cc1 | > 39 µM (inactive)
COc1ccccc1-c1nc(CN(c2ccccc2OC)S(=O)(=O)c2ccccc2C)c(C)o1 | 6.87 µM
COc1ccc(-c2nc(NC3CC3)c3ccccc3n2)cc1 | 14.9 µM
COCC(=O)N1[C@@H](C#N)[C@H](c2ccc(C#CCC3CCCC3)cc2)[C@@H]1CO | 38.3 µM
Cc1cccc(C(=O)N2CCC3(CC2)Nc2cc(F)ccc2-n2cccc23)c1 | > 39 µM (inactive)
COc1ccccc1C#Cc1ccc([C@@H]2[C@@H](CO)N3CCCCN(C(=O)C4CCC4)C[C@H]23)cc1 | 28.8 µM and 14.6 µM

SMILES | AC50
CCCCN(C)C(=O)c1cnc(-c2noc3cc(NCC4CC4)ccc23)s1 | 6.44 µM and 21.7 µM
Cc1ccc(C)c(S(=O)(=O)N2CCC3(CC2)c2ncc(-c4cccc(F)c4)n2CCN3C)c1 | 20.9 µM
O=C(Cc1cccnc1)N1CC(=O)N2[C@H](CO)[C@@H](c3ccc(C#CC4CCCCC4)cc3)[C@H]2C1 | 16.4 µM
CC(C)(C)c1ccc(S(=O)(=O)N2CCC[C@@H]2C(=O)NCCc2csc(-c3ccccc3)n2)cc1 | 4.48 µM
COc1cccc(-c2ccc3c(c2)[C@@H]2[C@@H](CCN2C(=O)c2ccccc2F)[C@H](CO)N3C)c1 | 14.4 µM and 10.9 µM
CCc1nc(OCC(=O)Nc2ccc(F)c(Cl)c2)c2ccccc2n1 | > 39 µM (inactive)
COc1ccc(-c2nc(Nc3ccc(C)cc3)c3ccccc3n2)cc1 | 19.1 µM
O=S(=O)(c1cccs1)N1CCC2(CC1)NCCN=C2NCc1cccc(F)c1 | 26.1 µM
COc1cc(Nc2nc(SCc3ccccc3F)nc3ccccc23)cc(OC)c1OC | 20.6 µM
Cc1ccc(-c2nc(Cn3nnc(-c4nc(-c5ccccc5)no4)c3C)c(C)o2)cc1 | > 20 µM (inactive)
COc1ccc(CNc2nc(SCc3ccc(Cl)cc3)nc3ccccc23)cc1 | 35.5 µM
Cc1ccccc1-c1ccc(C2[C@@H]3CN(C(=O)C4CCOCC4)C[C@H]2N3)cc1 (stereo not given in full) | 26.4 µM
Cc1ccc(CNC2=NCCNC23CCN(S(=O)(=O)c2ccc4c(c2)CCCC4)CC3)cc1 | 19.4 µM
Cc1ccccc1S(=O)(=O)N1C[C@@H]2N[C@H](C1)C2c1ccc(-c2cccc(C#N)c2)cc1 (stereo not given in full) | 15.6 µM and 2.57 µM and 18.7 µM
COc1ccc(NC(=O)N2CCCCN3[C@H](C2)[C@@H](c2ccc(-c4ccccc4F)cc2)[C@@H]3CO)cc1 | 32.8 µM
CN(C)C(=O)c1ccc(-c2ccc3c(c2)[C@@H]2[C@@H](CCN2C(=O)C2CCCC2)[C@@H](CO)N3C)cc1 | 21.1 µM
CCCCNC(=O)CCC1N=C2c3ccccc3N=C(SCc3ccccc3Cl)N2C1=O (stereo not given) | 24.1 µM
O=C(CC1CCC2(CC1)CCN(c1ncc(F)cn1)CC2)N1CC=CC1 | 19.3 µM
Cc1cc(C)cc(S(=O)(=O)N2CCC3(CC2)NCCN=C3NCc2ccc(C(F)(F)F)cc2)c1 | 6.65 µM
CCc1ccc(S(=O)(=O)N2CCC3(CC2)NCCN=C3NCc2ccc(F)c(Cl)c2)cc1 | 4.73 µM
CCOc1ccccc1-c1nc(CN(c2cccc(OC)c2)S(=O)(=O)c2ccccc2)c(C)o1 | > 39 µM (inactive)
CN(C)C(=O)c1ccc(-c2ccc3c(c2)[C@H]2[C@H](CCN2C(=O)C2CCCC2)[C@@H](CO)N3C)cc1 | 18.8 µM
O=C(Nc1ccc(F)cc1)N1C[C@@H]2N[C@H](C1)C2c1ccc(/C=C/c2ccccc2)cc1 (stereo not given in full) | 10.3 µM and 2.14 µM

SMILES | AC50
Cc1cccc(-c2nc(Cn3nnc(-c4nc(-c5ccncc5)no4)c3C)c(C)o2)c1 | 8.63 µM
Cc1ccc(-c2nc(CN(c3ccccc3)S(=O)(=O)c3ccccc3)c(C)o2)cc1 | 10.3 µM
CCOc1ccc(-c2nc(CN3CCN(C(=O)Nc4cccc(Cl)c4)CC3)c(C)o2)cc1 | 17.1 µM
N#C[C@H]1[C@@H](c2ccc(-c3cccc(F)c3)cc2)[C@H](CO)N1C(=O)NC1CCCC1 | 10.1 µM
Cc1ccc(-c2nc(CN3CCN(C(=O)Nc4cccc(Cl)c4)CC3)c(C)o2)cc1 | > 39 µM (inactive)
O=C(NCCc1csc(-c2ccccc2)n1)C1CCN(C(=O)c2ccccc2Cl)CC1 | 25.8 µM
Cc1ccccc1N(Cc1nc(-c2ccccc2)oc1C)S(=O)(=O)c1cccs1 | > 39 µM (inactive)
Clc1ccc(-c2nc(NC3CCCC3)c3ccccc3n2)cc1 | 17.6 µM
COc1ccccc1-c1noc(-c2nnn(Cc3nc(-c4ccccc4OC)oc3C)c2C)n1 | > 39 µM (inactive)
CCOC(=O)Cn1c(C)c(CN2CCCC2c2cc(C(C)C)no2)c2ccccc21 (stereo not given) | 15.5 µM
COc1ccccc1C#Cc1ccc([C@H]2[C@H](CO)N3CCCCN(C(=O)C4CCC4)C[C@@H]23)cc1 | 13.5 µM and 5.77 µM
O=C(c1cccc(F)c1)N1CC(=O)N2[C@H](CO)[C@H](c3ccc(/C=C/c4ccccc4)cc3)[C@@H]2C1 | 19.6 µM
CC(C)COC1CC2(CCN(C(=O)c3cccn3C)CC2)C1 | 14.6 µM
CCOc1ccc(N(Cc2nc(-c3ccc(OC)cc3)oc2C)S(=O)(=O)c2ccccc2)cc1 | 3.96 µM and 3.81 µM
Clc1cccc(CN2CCC3(COCc4cnc(-c5ccccc5)nc43)C2)c1 (stereo not given) | 18.2 µM and 10.4 µM
CCOc1ccc(-c2nc(CN(c3cccc(OC)c3)S(=O)(=O)c3ccccc3)c(C)o2)cc1 | 6.87 µM
COc1ccccc1-c1noc(-c2nnn(Cc3nc(-c4ccc(C)cc4)oc3C)c2C)n1 | 15 µM
Cc1cc(C)c(S(=O)(=O)N2CCC3(CC2)NCCN=C3NCc2ccc3c(c2)OCO3)cc1C | 9.23 µM
CN1C(=O)c2cc(NC(=O)Cc3cccs3)ccc2OC[C@@H]2O[C@H](CC(=O)NCC3CCCCC3)CC[C@@H]21 | > 39 µM (inactive)
O=C(Cc1ccccn1)N1CC(=O)N2[C@H](CO)[C@@H](c3ccc(C#CCC4CCCC4)cc3)[C@@H]2C1 | 9.77 µM and 15.5 µM
Cc1ccc(Nc2nc(-c3ccccc3Cl)nc3ccccc23)cc1 | 14.2 µM
